Consider one compound from patent US20200129528A1, “METHODS FOR TREATING BLOOD PRESSURE CONDITIONS USING AMINOSTEROL COMPOSITIONS” (Enterin, Inc., priority 2018, published 2020).

In data set [1] the test system is patients with PD and constipation. Kind of data set: Sleep diary in Stage 2: total sleep time, arm or leg thrashing (RBD). It is filed as in vivo, human. As to conditions: baseline to maximal dose. As to the method: FIG. 3 is a chart of total sleep time in relation to squalamine dose. Total sleep time was obtained from the sleep diary by subtracting awake time during the night from total time spent in bed. Total sleep time per night was logged for each patient at baseline, each dosing period and at washout, and the means were determined. The light grey bar represents the baseline value for each cohort at a given dose level and the dark grey bar represents the value for the same cohort at the stated dose of squalamine (ENT-01; Kenterin™). The number of patients represented at each value are: Baseline, 33; 75 mg, 21; 100 mg, 28; 125 mg, 18; 150 mg, 15; 175 mg, 12; 200 mg, 7; 225 mg, 3; 250 mg, 2; washout, 33. P values were as follows: 75 mg, p=0.4; 100 mg, p=0.1; 125 mg, p=0.3; 150 mg, p=0.07; 175 mg, p=0.03; 200 mg, p=0.3; 225 mg, p=0.5; 250 mg, p=0.3; wash-out, p=0.04 (paired t test).
(5) Sleep Diary (participants completed a sleep diary on a daily basis throughout the study. The diaries included time into bed and estimated time to sleep as well as wake time and duration during the night.); […]

For data set [2] the test system is unchanged. Description: Phase 2 trial: adverse events in all 44 dosed patients. In kind it is in vivo, human. As to the method:
Fifty patients were enrolled and 44 were dosed. In Stage 1, 10 patients were dosed, 1 (10%) withdrew prior to completion and 9 (90%) completed dosing. In stage 2, 6 (15%) patients had ≥3 CSBM/week at the end of the run-in period and were excluded, 34 patients were dosed and bowel response was assessable in 31 (91%). Two patients (5.8%) were terminated prior to completion because of recurrent dizziness, and 3 others withdrew during dosing (8.8%): 2 because of diarrhea and 1 because of holiday. Fifteen patients were randomized.
Most AEs were confined to the GI tract (88% in Stage 1 and 63% in Stage 2). The most common AE was nausea which occurred in 4/10 (40%) patients in Stage 1 and in 18/34 (52.9%) in Stage 2 (Table 2). Diarrhea occurred in 4/10 (40%) patients in Stage 1 and 15/34 (44%) in Stage 2. One patient withdrew because of recurrent diarrhea. Other GI related AEs included abdominal pain 11/44 […], flatulence 3/44 (6.8%), vomiting 3/44 (6.8%), worsening of acid reflux 2/44 (4.5%), and worsening of hemorrhoids 1/44 (2.2%). […] The only other noteworthy AE was dizziness 8/44 (18%). Dizziness was graded as moderate in one patient who was receiving an alpha-adrenergic blocking agent (Terazosin). This patient was withdrawn from the study and recovered spontaneously.

On the set-up of data set [3]: species or system rats. The note with it: rat, in vivo.
The subject of data set [4] is patients with PD and constipation. Kind of data set: Phase 2 trial Stage 2: adverse events. It is filed as in vivo, human. As to the method: In Stage 2, 34 patients were evaluated. […] This dose was then maintained (“fixed dose”) fir an additional 3-5 days.
Details of data set [5]: species or system dogs. The note with it: dog, in vivo.
The test system of data set [6] is patients with PD and constipation. Kind of data set: Neurological (CNS) symptoms in Stage 2: UPDRS, MMSE, PDHQ, BDI-II. It is filed as in vivo, human. As to conditions: for patients in whom hallucinations or delusions improved or disappeared during treatment: 6 patients with hallucinations (5) or delusions (1) at baseline. An excerpt:
(8) Beck Depression Inventory (BDI-II);
(9) Unified Parkinson's Disease Rating Scale (UPDRS), which consists of 42 items in four subscales (Part I=Non-Motor Aspects of Experiences of Daily Living (nM-EDL) (1.1 cognitive impairment, 1.2 hallucinations and psychosis, 1.3 depressed mood, Part II=Motor Aspects of Experiences of Daily Living (M-EDL), Part III=Motor Examination, and Part IV=Motor Complications;
(10) Mini Mental State Examination (MMSE);
(12) The University of Miami Parkinson's Disease Hallucinations Questionnaire (UM-PDHQ);
Exploratory end-points, in addition to constipation, included for example, (i) depression assessed using the Beck Depression Inventory (BDI-II) (Steer et al. 2000) and Unified Parkinson's Disease Rating Scale (UPDRS); (ii) cognition assessed using the Mini Mental State Examination (MMSE) (Palsteia et al. 2018), Unified Parkinson's Disease Rating Scale (UPDRS), and Trail Making Test (TMT); (iii) sleep and REM-behavior disorder (RBI)) using a daily sleep diary, I-Button Temperature Assessment, a REM sleep behavior disorder (RBD) questionnaire (RBDQ) (Stiasny-Kolster et al. 2007), and the UPDRS; (iv) hallucinations assessed using the PD hallucinations questionnaire (PDHQ) (Papapetropoulos et al. 2008), the UPDRS, and direct questioning; (v) fatigue using the Parkinson's Disease Fatigue Scale (PFS-16) and the UPDRS; (vi) motor functions using the UPDRS; and (vii) non-motor functions using the UPDRS.
Assessments were made at baseline and at the end of the fixed dose and washout periods. Circadian system status was evaluated by continuously monitoring wrist skin temperature (Thermochron iButton DS1921H; Maxim, Dallas) following published procedures (Sarabia et al. 2008).
An exploratory analysis was done with respect to the sleep data, the body temperature data, mood, fatigue, hallucinations, cognition and other motor and non-motor symptoms of PD. Continuous measurements within a subject were compared with a paired t-test and continuous measurements between subject groups were compared with a two-group t-test. Categorical data were compared with a chi-squared test or a Fisher's exact test if the expected cell counts are too small for a chi-squared test.

Several values for one entry are separate records, joined by “and”; a condition that tells them apart may be missing. Equal entries are not always repeated. Where two headings read alike, the source gives them in different places.

`CC(C)[C@@H](CC[C@@H](C)[C@H]1CC[C@H]2[C@@H]3[C@H](O)C[C@H]4C[C@@H](NCCCNCCCCN)CC[C@]4(C)[C@H]3CC[C@]12C)OS(=O)(=O)O` (single isomer, unassigned) [ENT-01, squalamine]: the “improvement of arm or leg thrashing frequency” value in data set [1] was 100%. Further, the “outcome of all other AEs” value in data set [2] (human, in vivo) is on record as “resolved spontaneously without discontinuation”. In data set [2] (one patient, during the withdrawal period, on aspirin, naproxen and clopidogrel), the “lower GI bleed (serious adverse event), relation to drug” value is on record as “unrelated to study medication”. The oral bioavailability entry in data set [3] is given as “limited bioavailability”. Further, the “absorption from the intestine” value in data set [3] (po) is “low”. In data set [4] (Stage 2), the “patients who withdrew during dosing because of diarrhea” value was 2. For the same compound, in data set [4] (Stage 2, 34 dosed), the “Difficulty falling asleep, mild” value is 1(3)^ n, %; the “Eye infection, mild” value is listed as 1(3)^ n, %; the “Flatulence, mild” value is recorded as 1(3)^ n, %; the “Urinary retention, mild” value is given as 1(3)^ n, %. In data set [4] (Stage 2, 34 dosed), the “Urinary tract infection, mild” value is 1(3)^ n, % and the “Worsening hemorrhoid, mild” value was 1(3)^ n, %. Moreover, in data set [5], the oral bioavailability entry is given as “limited bioavailability”. Also, in data set [6] (1 patient), the “time without return of hallucinations/delusions after discontinuation” value is recorded as 4 weeks. For the same compound, the “patients in whom hallucinations or delusions improved or disappeared during treatment” value in data set [6] is “five”. The “patients in whom hallucinations or delusions improved or disappeared during treatment” value in data set [6] (listed as aminosterol) is “five and 5 of 6”. In data set [6] (listed as squalamine (ENT-01)), the “patients in whom hallucinations or delusions improved or disappeared during treatment” value is reported as 5 of 6. In data set [6] (another patient), the “time without return of hallucinations/delusions after discontinuation” value is on record as 2 weeks.
